According to ChEMBL document CHEMBL1159362, “New cytotoxic indole alkaloids from Tabernaemontana calcarea from the Madagascar rainforest” (J Nat Prod, 2003):
In brackets after ≈: the same amount, converted by molar mass.

Test system: A2780
Test: Cytotoxicity against human A2780 cells
Assay type: functional, cell-based

With COC(=O)[C@@]12C[C@@H]3C[C@H]([C@@H](C)O)[C@@H]1N(CC[C@]1(O)C2=Nc2ccc(OC)cc21)C3 the IC50 was 10.8 µg/mL (≈ 27 µM).
Molecule CC[C@H]1C[C@H]2CC3c4[nH]c5cc(OC)ccc5c4CCN(C2)[C@H]31 has an IC50 of 4.9 µg/mL (≈ 15.8 µM).
With COC(=O)[C@@]12C[C@@H]3C[C@H]([C@@H](C)O)[C@@H]1N(CCc1c2[nH]c2ccc(OC)cc12)C3=O the IC50 was 6.8 µg/mL (≈ 17.1 µM).
C[C@@H](O)[C@@H]1C[C@H]2C[C@H]3c4[nH]c5ccccc5c4CCN(C2)[C@@H]13 showed an IC50 of 8.9 µg/mL (≈ 30 µM).
CC[C@H]1C[C@@H]2CN3CCc4c([nH]c5cc(O)ccc45)[C@](C(=O)OC)(C2)[C@H]13 showed an IC50 of 4.8 µg/mL (≈ 13.5 µM).
CC[C@H]1C[C@H]2C[C@H]3c4[nH]c5cc(OC)ccc5c4CCN(C2O)[C@@H]13 (mixture of isomers) gave an IC50 of 7.9 µg/mL.
COC(=O)[C@@]12C[C@@H]3C[C@H]([C@@H](C)O)[C@@H]1N(CCc1c2[nH]c2ccc(OC)cc12)C3 [19(R)-HEYNEANINE] was tested, and the IC50 was 4 µg/mL (≈ 10.4 µM).
CC[C@H]1C[C@@H]2CN3CCc4c([nH]c5ccccc45)[C@](C(=O)OC)(C2)[C@H]13 [CORONARIDINE] gave an IC50 of 9.9 µg/mL (≈ 29.3 µM).
For C[C@H](O)[C@@H]1C[C@H]2C[C@H]3c4[nH]c5ccccc5c4CCN(C2)[C@@H]13 [HEYNEANINE], the IC50 was 10.7 µg/mL (≈ 36.1 µM).
CC[C@H]1C[C@H]2C[C@H]3c4[nH]c5ccc(OC)cc5c4CCN(C2)[C@@H]13 [IBOGAINE] gave an IC50 of 10.2 µg/mL (≈ 32.9 µM).
With CC[C@H]1C[C@H]2C[C@H]3c4[nH]c5ccccc5c4CCN(C2)[C@@H]13 [IBOGAMINE] the IC50 was 3.5 µg/mL (≈ 12.5 µM).
CC[C@H]1C[C@@H]2CN3CCc4c([nH]c5cc(OC)ccc45)[C@](C(=O)OC)(C2)[C@H]13 [ISOVOACANGINE] was tested, and the IC50 was 9.4 µg/mL (≈ 25.5 µM).
With COC(=O)[C@@]12C[C@@H]3C[C@H]([C@H](C)O)[C@@H]1N(CCc1c2[nH]c2cc(OC)ccc12)C3 [ISOVOACRISTINE] the IC50 was 9.6 µg/mL (≈ 25 µM).
CC[C@H]1C[C@@H]2CN3CCc4c([nH]c5ccc(OC)cc45)[C@](C(=O)OC)(C2)[C@H]13 [VOACANGINE] gave an IC50 of 10.4 µg/mL (≈ 28.2 µM).
Work on COC(=O)[C@@]12C[C@@H]3C[C@H]([C@H](C)O)[C@@H]1N(CCc1c2[nH]c2ccc(OC)cc12)C3 [VOACRISTINE] yielded an IC50 of 11 µg/mL (≈ 28.6 µM).
